Test results from US4011322A, “Benzimidazole derivatives and process for the production thereof” (Schering Aktiengesellschaft, priority 1974, dated 1977).

System: stripped skin of volunteers (vasoconstriction / hyperemia)
Test: Vasoconstriction test on stripped skin of volunteers (topical ointment)
Type: in vivo, human (volunteers)
Experimental: The anti-inflammatory effectiveness of the novel benzimidazole derivatives can be determined in the conventional vasoconstriction test, as follows:
On the backs of volunteers for the experiment, the stratum corneum was removed by the application and tearing off of an adhesive strip, applied 20 times at the same spot, thus producing a pronounced hyperemia. Within the stripped area, respectively 50 mg. of ointment was applied to marked areas having a size of 4 cm^2, this ointment containing respectively 0.1, 0.01 or 0.001%, respectively, of the compound to be tested or of the reference substance in a water-oil base. […]
To determine the vasoconstriction, which is a representative syndrome of topical anti-inflammatory activity, the color value of the untreated skin and the treated stripped skin is measured and compared with the color value of the normal skin, with the color value of the normal skin being assigned the value 100 and the color value of the untreated stripped skin being assigned the value 0. Minor, medium, and high-grade vasoconstriction are evaluated with values between 0 and 100.
The results of such tests employing compounds of this invention (Compounds III and IV) and the prior art compounds Clemizole (I) and Flucortolone (II) are shown in Table I below.

[1] = 0.001% in ointment, observation time 1 hour
[2] = 0.001% in ointment, observation time 4 hours
[3] = 0.001% in ointment, observation time 8 hours
[4] = 0.01% in ointment, observation time 1 hour
[5] = 0.01% in ointment, observation time 4 hours
[6] = 0.01% in ointment, observation time 8 hours
[7] = 0.1% in ointment, observation time 1 hour
[8] = 0.1% in ointment, observation time 4 hours
[9] = 0.1% in ointment, observation time 8 hours

Structure (SMILES)	vasoconstriction (color value; normal skin = 100, untreated stripped skin = 0) [1]	vasoconstriction (color value; normal skin = 100, untreated stripped skin = 0) [2]	vasoconstriction (color value; normal skin = 100, untreated stripped skin = 0) [3]	vasoconstriction (color value; normal skin = 100, untreated stripped skin = 0) [4]	vasoconstriction (color value; normal skin = 100, untreated stripped skin = 0) [5]	vasoconstriction (color value; normal skin = 100, untreated stripped skin = 0) [6]	vasoconstriction (color value; normal skin = 100, untreated stripped skin = 0) [7]	vasoconstriction (color value; normal skin = 100, untreated stripped skin = 0) [8]	vasoconstriction (color value; normal skin = 100, untreated stripped skin = 0) [9]
C[C@@H]1C[C@H]2[C@@H]3C[C@H](F)C4=CC(=O)C=C[C@]4(C)[C@H]3[C@@H](O)C[C@]2(C)[C@H]1C(=O)CO [II, 6 α-Fluoro-11β,21-dihydroxy-16α-methyl-1,4-pregnadiene-3,20-dione]	20	50	60	15	65	85	35	75	85
CCN1CCN(Cc2nc3ccccc3n2Cc2ccccc2O)CC1 [III, 2-(4-Ethyl-1-piperazinyl)-methyl-1-(2-hydroxybenzyl)-benzimidazole]	15	15	20	35	55	55	45	80	85
Clc1ccc(Cn2c(CN3CCCC3)nc3ccccc32)cc1 [I, 1-4'Chlorobenzyl-2-pyrrolidinomethyl-benzimidazole]				18	31	33	18	35	45
CCN1CCN(Cc2nc3ccccc3n2Cc2ccc(Cl)cc2)CC1 [IV, 2-(4-Ethyl-1-piperazinyl)-methyl-1-(4-chlorobenzyl)-benzimidazole]	25	65	95	30	85	100			
